Test results published in article PMC12037410, “Pharmacological targeting of BMAL1 modulates circadian and immune pathways” (Nature Chemical Biology, 2025).

What follows are compounds tested against BMAL1 (Homo sapiens, UniProt O00327). Conditions: dTmB; binder.
Design: PASB domain (residues 338–449); Protein thermal shift (PTS) fragment screen on recombinant human BMAL1(PASB), shift of melting temperature

Sequence of BMAL1 (O00327 338-449): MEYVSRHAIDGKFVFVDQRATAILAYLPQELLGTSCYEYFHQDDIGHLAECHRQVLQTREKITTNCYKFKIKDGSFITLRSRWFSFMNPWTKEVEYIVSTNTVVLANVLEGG

SMILES	Bmal1(PASB) dTmB [°C]
Cc1ccccc1C(=O)Nc1ccccc1 [Prestw-Frag-3202, Compound 39]	-1.32
Cc1cc(=O)n(-c2ccc(C)c(C)c2)[nH]1 [Prestw-Frag-3221, Compound 342]	1.18
Oc1ccccc1OCC(F)(F)F [Prestw-Frag-3225, Compound 113]	-0.44
Cc1cn(-c2cc(N)cc(C(F)(F)F)c2)cn1 [Prestw-Frag-3241, Compound 458]	-2.09
Cc1cc(C)[nH]c(=O)n1 [Prestw-Frag-3247, Compound 190]	0.01
O=C(O)CC(c1ccccc1)c1ccccc1 [Prestw-Frag-3250, Compound 130]	-0.49
FC(F)(F)c1nnc2n1CCNC2 [Prestw-Frag-3253, Compound 136]	0.11
CN1CCN(c2cc(N)ncn2)CC1 [Prestw-Frag-3262, Compound 191]	-0.17
Nc1ccn([C@H]2C[C@H](O)[C@@H](CO)O2)c(=O)n1 [Prestw-Frag-3264, Compound 107]	-0.01
Nc1ncn([C@@H]2O[C@H](CO)[C@@H](O)[C@H]2O)c(=O)n1 [Prestw-Frag-3302, Compound 121]	-0.02
COc1ccc(S(=O)(=O)N2CCNCC2)cc1 [Prestw-Frag-3313, Compound 215]	-0.02
CCOc1ccccc1C(=N)N [Prestw-Frag-3314, Compound 150]	-0.32
Nc1ncc([N+](=O)[O-])s1 [Prestw-Frag-3324, Compound 478]	-7.14
Nc1ncnc2c1ncn2CCO [Prestw-Frag-3329, Compound 91]	-0.48
O=C(c1ccc(C(F)(F)F)cc1)C1CCCCC1 [Prestw-Frag-3334, Compound 225]	-0.21
NC(=O)c1ccc2[nH]ccc2c1 [Prestw-Frag-3336, Compound 449]	-0.81
Nc1ccc(CS(=O)(=O)N2CCCC2)cc1 [Prestw-Frag-3341, Compound 142]	-0.24
COc1ccc(CC(C)N)cc1 (stereo not shown) [Prestw-Frag-3342, Compound 241]	-0.24
CS(=O)(=O)NC(Cc1ccccc1)C(=O)O (stereo not shown) [Prestw-Frag-3362, Compound 137]	0.29
CNS(=O)(=O)CCc1ccccc1 [Prestw-Frag-3368, Compound 97]	-0.29
CCOC(=O)c1cccnc1 [Prestw-Frag-3382, Compound 96]	-0.50
O=C(CCCN1CCNCC1)c1ccc(F)cc1 [Prestw-Frag-3426, Compound 470]	-0.60

SMILES	Bmal1(PASB) dTmB [°C]
COc1ccc(CCN)cc1OC [Prestw-Frag-3454, Compound 202]	-0.13
Oc1ccc(Cc2ccccc2)cc1 [Prestw-Frag-3455, Compound 469]	-2.61
O=C1CNCCN1 [Prestw-Frag-3458, Compound 117]	-0.43
O=C1CN(Cc2ccccc2)CCN1 [Prestw-Frag-3459, Compound 48]	-0.65
CN1CCNCC1=O [Prestw-Frag-3460, Compound 125]	0.00
Cn1cc(CC(=O)O)c2ccccc21 [Prestw-Frag-3461, Compound 75]	-0.44
NC1CCc2ccccc21 (stereo not shown) [Prestw-Frag-3462, Compound 90]	-0.81
O=C1COCCN1 [Prestw-Frag-3463, Compound 118]	-0.27
Cn1ccc(=O)[nH]1 [Prestw-Frag-3664, Compound 92]	0.17
O=C1Cc2cc(F)ccc2N1 [Prestw-Frag-3667, Compound 261]	-0.23
O=C(O)CC1CCCCC1 [Prestw-Frag-3668, Compound 169]	0.13
C#Cc1cccc(N)c1 [Prestw-Frag-3669, Compound 7]	-3.75
CN1CCN(c2ccc(N)cc2)CC1 [Prestw-Frag-3670, Compound 20]	0.65
CCN1CCCC1CN (stereo not shown) [Prestw-Frag-3671, Compound 99]	-0.56
Fc1ccc(CN2CCNCC2)cc1 [Prestw-Frag-3673, Compound 274]	-1.00
O=C(c1ccccc1)N1CCNCC1 [Prestw-Frag-3677, Compound 184]	-0.65
COc1ccc2nc[nH]c2c1 [Prestw-Frag-3678, Compound 41]	-0.91
O=C1CC2(CCCC2)CC(=O)N1 [Prestw-Frag-3680, Compound 36]	-2.38
Nc1ccc2c(c1)CCCC2 [Prestw-Frag-3682, Compound 71]	0.33
Nc1ncns1 [Prestw-Frag-3683, Compound 69]	-0.32
CC(=O)c1ccc2c(c1)OCO2 [Prestw-Frag-3686, Compound 57]	-1.06
NCc1ncc[nH]1 [Prestw-Frag-3689, Compound 15]	-1.37

SMILES	Bmal1(PASB) dTmB [°C]
CNC(=O)c1c(-c2ccccc2)noc1C [Prestw-Frag-3690, Compound 210]	-0.42
CN1CCN(CCCC(=O)c2ccc(F)cc2)CC1 [Prestw-Frag-3692, Compound 279]	-0.28
Oc1cccc2[nH]ccc12 [Prestw-Frag-3696, Compound 12]	-0.70
O=C1COc2cc(O)ccc21 [Prestw-Frag-3703, Compound 77]	0.62
c1ccc(C2COCCN2)cc1 (stereo not shown) [Prestw-Frag-3705, Compound 182]	-0.30
CC(C(=O)O)c1cccc(F)c1 (stereo not shown) [Prestw-Frag-3706, Compound 79]	0.26
NC1CCc2[nH]c3ccccc3c2C1 (stereo not shown) [Prestw-Frag-3709, Compound 361]	1.14
O=C(O)C(c1ccccc1)c1ccccc1 [Prestw-Frag-3711, Compound 127]	-0.11
c1ccc(C2CCCNCC2)cc1 (stereo not shown) [Prestw-Frag-3712, Compound 230]	-0.85
Oc1ccc2c(c1)CCC2 [Prestw-Frag-3713, Compound 89]	-0.82
NC1CCC(=O)NC1=O (stereo not shown) [Prestw-Frag-3716, Compound 102]	-0.05
CC(O)(C(=O)O)c1ccccc1 (stereo not shown) [Prestw-Frag-3717, Compound 103]	-0.01
O=C1CNCN1 [Prestw-Frag-3718, Compound 116]	-0.07
c1cncc(CN2CCNCC2)c1 [Prestw-Frag-3722, Compound 288]	-0.77
NC(=O)N1CCNCC1 [Prestw-Frag-3723, Compound 152]	0.03
Cc1n[nH]c(C)c1N [Prestw-Frag-3724, Compound 23]	-1.19
FC(F)(F)c1ccn[nH]1 [Prestw-Frag-3726, Compound 192]	0.30
OCC1CCNCC1 [Prestw-Frag-3727, Compound 325]	0.08
OCC1CCCNC1 (stereo not shown) [Prestw-Frag-3728, Compound 390]	-0.26
c1cc(N2CCNCC2)ncn1 [Prestw-Frag-3729, Compound 289]	-0.01
